Experimental data reported in ChEMBL document CHEMBL3507680, “University of Dundee, Gates Library screen for HepG2 cell viability”.

Assay: Human HepG2 cell viability assay in 384 well format
Format: toxicity, cell-based
Design: dose 125 nL, time 70.5 hour; cytotoxicity at 70.5 h: concentration not given beside the values
Settings: HepG2 cells, read-out: Inhibition

Structure (SMILES)	cytotoxicity at 70.5 h [%]
F[C@@H]1CN(CC2CCCCC2)C[C@@H]1OCc1nc2ccccc2o1	1.33
CCS(=O)(=O)c1ccc2oc([C@H]3CCN(Cc4ccccn4)C3)nc2c1	2.52
CN1CCC(N[C@@H]2CO[C@H](CNC(=O)Nc3ccccc3)[C@H]2O)CC1	-2.44
O=C(NC[C@H]1OC[C@@H](NC2CCC(F)(F)CC2)[C@@H]1O)c1ccccc1	-0.0244
O=C1N(C2CCCCC2)C[C@H]2CN(C3CCC3)CCN12	9.88
CS(=O)(=O)NC[C@H]1Cn2c(-c3ccc4c(c3)OCCO4)cnc2CO1	-13.2
CC[C@H]1CN(S(C)(=O)=O)CC[C@H]1CC(=O)NCCSC	-2.51
CC(C)(C)C(=O)N1CC[C@H]2NC(=O)N(c3ccc(F)cc3)C(=O)[C@H]21	-4.77
O=C1N[C@@H]2CCN(C(=O)C3CC3)[C@@H]2C(=O)N1c1ccc(F)cc1	-13.5
CC(C)(C)CC(=O)N1CC[C@@H](CC(=O)O)[C@@H](CCN2CCCCC2)C1	8.46
O=C1N[C@@H]2CCN(C(=O)N3CCOCC3)[C@@H]2C(=O)N1Cc1ccccc1	-4.61
CS(=O)(=O)N1CC[C@@H](CC(=O)O)[C@@H](CC2=NCCc3cc(F)ccc32)C1	-6.32
CC(C)(C)c1cn(C[C@H]2CC3CCN2C[C@@H]3C(=O)NC2CC2)nn1 (some centres not stated)	10.5
O=C(Nc1ccccc1)[C@H]1CN2CC[C@H]1C[C@@H]2Cn1cc(CCO)nn1	-3.35
COc1ccc(C(=O)N2CCN3C(=O)CNC(=O)[C@@H]3C2)cc1	12.5
COCC(=O)NC[C@H]1C[C@@H]2CCN1C[C@@H]2c1cc(-c2cccs2)nn1C	-7.87
O=C(NC[C@H]1C[C@@H]2CCN1C[C@@H]2CN1CCCCC1)Nc1ccccc1	-1.01
CN(C)CCN1C(=O)CCCC12CCCN(Cc1ccc[nH]1)C2 (configuration not stated)	26
O=C(C1CCOCC1)N1C[C@H]2CNC[C@H]2C1	-1.57
CCS(=O)(=O)N1CCC2(CCN(CC(=O)N(C)C)C2=O)CC1	-1.33
O=C(NCc1ccccc1)N1C[C@H]2CCN[C@H]2C1	26
CC(=O)N1CCC2(CCN(S(=O)(=O)c3ccccc3)CC2)C1	22.3
CC(=O)N1CCC2(CC1)CCN(S(=O)(=O)c1ccccc1)C2	29.2
CCCS(=O)(=O)N1C[C@H]2C[C@H](C(=O)N3CCOCC3)[C@@H](C1)O2	-4.21
O=C(CCc1ccccc1)N1C[C@H]2CCN[C@H]2C1	-7.82
O=C(N[C@H]1CC[C@@]2(CCC(=O)N2CC2CC2)CC1)c1cnccn1	-11

Structure (SMILES)	cytotoxicity at 70.5 h [%]
COCCN1C(=O)CC[C@]12CC[C@@H](NC(=O)c1cnccn1)CC2	-2.82
Cc1cc(C(=O)N2CC[C@@H]3CN(C)S(=O)(=O)[C@@H]3CC2)no1	-7.25
CC(C)CN1C[C@H]2CCN(C(=O)c3ccccn3)CC[C@H]2S1(=O)=O	-4.38
CCC(=O)N1CCC2(CC1)CC(CC(=O)NC1CC1)c1ccccc1O2 (configuration not stated)	5.58
O=C(NC1CC1)N1C[C@H]2CN(c3ccccc3)C(=O)[C@H]2C1	4.91
CCc1cnc(N2CCC3(CCN(Cc4cccc(C)c4)C3=O)C2)nc1 (configuration not stated)	1.75
CO[C@@H]1CCN(C(=O)c2cc(C)on2)C[C@@H]1Cc1ccccc1	20.3
O=C1CCC2(CCN(Cc3ccsc3)CC2)N1Cc1ccccc1	-10.3
O=C1[C@H]2CN(C(=O)[C@H]3CCCO3)C[C@H]2CN1CC1CC1	-5.67
O=C(CCO)N1C[C@H]2CN(c3ccccc3)C(=O)[C@H]2C1	-8.23
O=C(NCCc1ccccn1)[C@@]12CCO[C@@H]1CCN(CC1CC1)C2	-5.28
COc1ccc(C[C@H]2CN(C(=O)c3cscn3)CC[C@@H]2OC)cc1	49.9
O=C(c1ccoc1)N1CCC2(CC1)C(=O)N(CC1CC1)c1ccccc12	-2.01
O=C([C@H]1CCCO1)N1CCC2(CC1)C(=O)N(CC1CC1)c1ccccc12	-1.06
CC(=O)N1CCC2(C1)C(=O)N(CC1CC1)c1ccccc12 (configuration not stated)	-8.89
Cc1cccc(CN2CCc3nnc(CN(C)C)n3CC2)n1	-10.7
O=C([C@@H]1CCO[C@@H]2CCN(Cc3ccco3)C[C@H]21)N1CCCCO1	-9.33
CN(C)C(=O)[C@@H]1CCO[C@@H]2CCN(c3ncccn3)C[C@H]21	-15.3
COCC1CN(Cc2c(C)noc2C)Cc2cn(C)nc21 (configuration not stated)	10.9
CNC(=O)c1nc2c(s1)CCN(C(=O)c1cccc(OC)c1)CC2	-10
Cc1nc(CN2CCOC3(CCCN(c4nccs4)C3)C2)cs1 (configuration not stated)	4.12
CC(=O)NCC(=O)N1Cc2ccnn2CC(COCCN(C)C)C1 (configuration not stated)	-6.24
O=C1N(Cc2ccc(Cl)cc2)CCC12CCCNC2 (configuration not stated)	-12.9
O=C1N(Cc2cccc(Cl)c2)CCC12CCCNC2 (configuration not stated)	-12.1
CCc1ccc(CN2CC[C@@H]3NC(=O)CC[C@@H]32)o1	27
O=C(C1CC1)N1CCC2(CCN2Cc2ccc(F)cc2)C1 (configuration not stated)	-0.516

Structure (SMILES)	cytotoxicity at 70.5 h [%]
Cc1nc(CN2C[C@@H]3CN(C(=O)c4cccn4C)C[C@@H]3C2)cs1	-6.14
CCN1C(=O)CC(c2ccccc2)C12CCN(CC1CCOCC1)CC2 (configuration not stated)	-8.46
COc1ccc(C[C@H]2CNCC[C@@H]2OC)cc1	-5.86
CC(C)NC(=O)N1CC[C@H]2[C@H]1CCN2c1ncccn1	-5.58
Cc1ccc(CN2C[C@@H]3CN(C(=O)c4cccn4C)C[C@@H]3C2)cc1	-3.66
CNC(=O)N1CC[C@H]2N(C)CC[C@@]2(C(=O)N2CCOCC2)CC1	-4.42
O=C(CC1CCCC1)N1CCC2(CCN2Cc2ccc(F)cc2)C1 (configuration not stated)	1.62
O=C1Nc2ccccc2C12CCN(Cc1nccs1)CC2	-1.05
COc1ccc(C[C@H]2CNCC[C@H]2OC)cc1	-6.44
CCN1C[C@H]2[C@@H](C1)N(C(=O)Cc1ccsc1)CC[C@H]2OC	-7.9
CS(=O)(=O)N1CC2(CCN(C(=O)c3ccncc3)CC2)c2ccccc21	-6.91
COCCN1CCC2(CC1)CC(NC(=O)COC)c1ccccc1O2 (configuration not stated)	-7.59
CC(C)NC(=O)N1CCC2(CCC(=O)N2CCN2CCCC2)CC1	-9.28
Cc1cccc(CN2CC[C@H]3[C@@H]2CC(=O)N3CC2CC2)n1	-9.45
COCCN1CCC2(CC1)CC(NC(=O)C(C)C)c1ccccc1O2 (configuration not stated)	-4.05
Cc1cnc(N2CCC3(CCCN3C(=O)c3ccco3)CC2)nc1	-2.74
Cc1cccc(CN2CCC3(CCN(c4ncccn4)CC3)C2=O)c1	1.2
CN(C)CC(=O)N1CC2(CCN(C(=O)Nc3ccccc3)C2)C1	22.9
O=C(c1ccco1)N1CCCC12CCN(c1ncccn1)CC2	-7.14
COc1ccc(C[C@H]2CN(C(=O)c3ccc(C)nc3)CC[C@@H]2OC)cc1	-2.92
COCCN1CCCC2(CCC(=O)N2Cc2cccnc2)C1 (configuration not stated)	28.9
Cc1cccc(CN2C[C@@H]3CN(C(=O)c4cnccn4)C[C@@H]3C2=O)n1	-0.986
Cc1cccc(CN2CCCn3c(nnc3CN3CCCC3=O)C2)n1	-9.11
COc1ccc(CN2CCC3(CC2)CCN(CC(=O)N(C)C)C3=O)cc1	-16.7
O=C(O)[C@]12CCCN(Cc3cccs3)C[C@H]1CN(c1ncccn1)C2	-9.42
Cc1ccc(CN2CCO[C@@H]3C[C@@H](C(=O)NC(C)C)C[C@H]32)o1	-8.04

Structure (SMILES)	cytotoxicity at 70.5 h [%]
CC(C)NC(=O)[C@H]1C[C@@H]2[C@@H](C1)OCCN2Cc1ccco1	-8.12
COc1ccc(CN2CCO[C@@H]3C[C@@H](C(=O)NC(C)C)C[C@H]32)cc1	-5.46
O=C(O)[C@]12CCCN(Cc3ccoc3)C[C@H]1CN(c1ncccn1)C2	-6.33
O=C1NC(c2ccccc2)=N[C@@]12CC[C@@H]1CN(CC3CC3)C[C@@H]12	-10.6
Cc1ccc(CN2CCc3ncnc(OC(C)C)c3CC2)s1	-6.82
CC(C)NC(=O)[C@H]1C[C@@H]2[C@@H](C1)OCCN2Cc1nccs1	-4.27
O=C(C1=CCCC1)N1CCC[C@]2(C[C@@H](OCc3ccccn3)CO2)C1	-15.2
COc1ccc(CN2CCn3cc(CNC(=O)C4CCC4)nc3C2)cc1	7.38
Cn1nnc2c1CCN(C(=O)C1CC1)C2COCCN1CCCC1 (configuration not stated)	-3.87
Cc1ccc(CN2CCn3c(CNC(=O)c4cccn4C)cnc3C2)s1	-10.3
Cc1noc(C)c1CN1CCCC2(C1)CN(c1nccs1)CCO2 (configuration not stated)	-2.38
Cc1ccc(CN2C[C@@H]3CCCO[C@@H]3[C@H](NS(C)(=O)=O)C2)o1	-9.45
Cc1noc(C)c1CN1CCOC2(CCCN(c3nncs3)C2)C1 (configuration not stated)	-4.97
Cc1noc(C)c1CN1CCOC2(CCCN(c3ncccn3)C2)C1 (configuration not stated)	-5.7
Cc1cccc(CN2CCCCC23CCNC3)n1 (configuration not stated)	-8.16
O=C(c1n[nH]c2c1CN(C1CCOCC1)CC2)N1CCCC1	-6.32
O=C(NCCc1ccccn1)[C@@]12CCO[C@@H]1CCN(C1CCC1)C2	-6.9
CN(C)C1COC2(CCN(Cc3ccc4c(c3)OCO4)CC2)C1 (configuration not stated)	2.59
Cc1cccc(CN2CCc3nnc(CN4CCCCC4)n3CC2)n1	-5.9
Cc1ccc(CN2CCCC3(COCCN(Cc4c[nH]nn4)C3)C2)s1 (configuration not stated)	19.3
COCC(=O)N1Cc2ccnn2CC(COCCN(C)C)C1 (configuration not stated)	-3.25
Cn1cc(CN2CCCC3(COCCN(Cc4c[nH]nn4)C3)C2)cn1 (configuration not stated)	0.634
CN1CCN(Cc2cccnc2)C(=O)C12CCN(Cc1ccco1)CC2	-8.43
c1cncc(C[C@H]2[C@H](N3CCOCC3)CCN2Cc2cccs2)c1	-5.01
